Assay results from the NIST ThermoML archive (doi:10.1021/je100287g).
Numbers after ± are expanded uncertainties.

Experiment: cn = amount concentration of the nth substance listed, in mol/dm3
Conditions: 101 kPa, Liquid, digital conductivity meter (CM-180, Elico India)

Compound: Nc1ccc(S(=O)(=O)[N-]c2nccs2)cc1.[Na+] [sodium ((4-aminophenyl)sulfonyl)(thiazol-2-yl)amide] + O
- electrical conductivity (283 K, c1 = 0.001): 0.0053 ± 0.0019 S/m
- electrical conductivity (283 K, c1 = 0.002): 0.0101 ± 0.0018 S/m
- electrical conductivity (283 K, c1 = 0.004): 0.0189 ± 0.0018 S/m
- electrical conductivity (283 K, c1 = 0.006): 0.0281 ± 0.0018 S/m
- electrical conductivity (283 K, c1 = 0.008): 0.0366 ± 0.0019 S/m
- electrical conductivity (283 K, c1 = 0.01): 0.0468 ± 0.002 S/m
- electrical conductivity (293 K, c1 = 0.001): 0.0064 ± 0.0024 S/m
- electrical conductivity (293 K, c1 = 0.002): 0.0124 ± 0.0022 S/m
- electrical conductivity (293 K, c1 = 0.004): 0.0233 ± 0.0022 S/m
- electrical conductivity (293 K, c1 = 0.006): 0.0344 ± 0.0021 S/m
- electrical conductivity (293 K, c1 = 0.008): 0.0447 ± 0.0023 S/m
- electrical conductivity (293 K, c1 = 0.01): 0.0574 ± 0.0027 S/m
- electrical conductivity (303 K, c1 = 0.001): 0.0078 ± 0.0029 S/m
- electrical conductivity (303 K, c1 = 0.002): 0.0151 ± 0.0028 S/m
- electrical conductivity (303 K, c1 = 0.004): 0.0288 ± 0.0027 S/m
- electrical conductivity (303 K, c1 = 0.006): 0.0423 ± 0.0026 S/m
- electrical conductivity (303 K, c1 = 0.008): 0.0545 ± 0.0028 S/m
- electrical conductivity (303 K, c1 = 0.01): 0.07 ± 0.0034 S/m
- electrical conductivity (313 K, c1 = 0.001): 0.00967 ± 0.0039 S/m
- electrical conductivity (313 K, c1 = 0.002): 0.0195 ± 0.0034 S/m
- electrical conductivity (313 K, c1 = 0.004): 0.0353 ± 0.0032 S/m
- electrical conductivity (313 K, c1 = 0.006): 0.0516 ± 0.0031 S/m
- electrical conductivity (313 K, c1 = 0.008): 0.0661 ± 0.0035 S/m
- electrical conductivity (313 K, c1 = 0.01): 0.0866 ± 0.0041 S/m
